The results in this text go back to ChEMBL document CHEMBL1144790, “Prodrugs of phosphates and phosphonates” (J Med Chem, 2008).

pIC50: −log10 of the molar value. Some results are limits rather than exact numbers.

Data set [1] has as its system Trypanosoma brucei. Briefly: Antiparasitic activity against Trypanosoma brucei. It is filed as functional, organism-based.
The nature of data set [2]: Chemical stability assessed as half life of hydrolysis in phosphate buffer at pH 8.5. It is filed as physicochemical.
Data set [3] in a line: Chemical stability assessed as half life of hydrolysis in carbonate buffer at pH 8.5. It is filed as physicochemical.
The subject of data set [4] is Liver. Briefly: Metabolic stability in rat liver S9 fraction assessed as esterase conversion rate. The data set is classed as ADME, subcellular.
Data set [5] is described as follows: Aqueous stability assessed as time to reach 90% of starting dose at pH 7. The following applies: buffer.
Data set [6] is described as follows: Stability in human gastric juice assessed as half life of hydrolysis. It is filed as ADME, tissue-based.
A short description of data set [7]: Stability in human serum assessed as half life of hydrolysis. It is filed as ADME, cell-free.
Data set [8] is described as follows: Oral bioavailability in rat. The data set is classed as ADME, organism-based. The following applies: in vivo.
A short description of data set [9]: Aqueous stability assessed as time to reach 90% of starting dose at pH 7. The following applies: buffer. It is filed as physicochemical.
Data set [10] is described as follows: Aqueous stability assessed as time to reach 90% of starting dose at pH 3.0 to 7.4. The data set is classed as physicochemical. The following applies: buffer.
Data set [11] in a line: Chemical stability assessed as half life of hydrolysis at acidic pH. The data set is classed as physicochemical.
Data set [12] is described as follows: Chemical stability assessed as half life of hydrolysis at neutral pH. The data set is classed as physicochemical.

One may read the pIC50 as the negative decadic logarithm of the IC50, by convention in mol/L. A lower pIC50 goes with a high IC50. In [1], `CC(C)(C)C(=O)SCCOP(=O)(OCCSC(=O)C(C)(C)C)Oc1ccc(O)c(C(=O)O)c1` showed a pIC50 of 4.70.
As a reminder, the half-life is how long it takes for the measured level to halve. As to `O=C(O)CCNC(=O)[C@H](Cc1ccc(-c2ccccc2)cc1)NCP(=O)(Oc1ccccc1)Oc1ccccc1`, the half-life was over 96 h in data set [2] and 0.5 h in data set [3].
Take `CC(C)Cc1sc(N)nc1-c1ccc(P(=O)(OCOC(=O)C(C)(C)C)OCOC(=O)C(C)(C)C)o1`: the Stability in data set [4] was over 300 nmol/min/mg; in data set [5], under 4 h.
For `CC(C)(C)C(=O)SCCOP(=O)(COCCn1cnc2c(N)ncnc21)OCCSC(=O)C(C)(C)C`, the half-life was under 5 min in [6] and 4 h in data set [7].
The bioavailability is the share of a dose that reaches the circulation, judged against a reference dose that is usually intravenous. A lower bioavailability goes with poor availability. In [8], `CCOC(=O)[C@H](C)NP(=O)(N[C@@H](C)C(=O)OCC)c1ccc(-c2nc(N)sc2CC(C)C)o1` registered a bioavailability of 22%. The Stability in data set [9] was over 7 days; in data set [10], over 48 h; in [4] it was 11 nmol/min/mg.
Regarding `CCOC(=O)[C@H](C)NP(=O)(Oc1ccccc1)c1ccc(-c2nc(N)sc2CC(C)C)o1` (stereo partly specified), the Stability was 55 nmol/min/mg in [4] and 14 h in data set [5].
For `CC(=O)SCCOP(=O)(OCCSC(C)=O)c1ccc(-c2nc(N)sc2CC(C)C)o1` the same measures were over 300 nmol/min/mg and 8 h.
With `CC(=O)Oc1ccc(COP(=O)(OCc2ccc(OC(C)=O)cc2)c2ccc(-c3nc(N)sc3CC(C)C)o2)cc1`, the Stability in [10] was under 4 h; in data set [4], over 300 nmol/min/mg.
On to `CCOC(=O)CNP(=O)(NCC(=O)OCC)c1ccc(-c2nc(N)sc2CC(C)C)o1`, for which the results for the Stability in data set [4] and in data set [5] were 43 nmol/min/mg and 36 h, respectively.
On to `CC(C)(C)C(=O)OCOP(=O)(OCOC(=O)C(C)(C)C)OC[C@H]1O[C@@H](n2cc(F)c(=O)[nH]c2=O)C[C@@H]1O`, for which the half-life in data set [11] and in [12] was over 40 h each time.
